From patent US9969699B2, “Cancer cell growth inhibitor, anticancer agent, and method for screening same, as well as novel compound” (Microbial Chemistry Research Foundation, priority 2014, dated 2018)

Key:
NIH3T3/EGFR vIII cells = test: 3D cell culture step (environment without adhesion scaffold), proliferation of NIH3T3/EGFR vIII cells; type: cell-based, mouse
NIH3T3 cells = test: 2D cell culture step (environment with adhesion scaffold), proliferation of NIH3T3 cells; type: cell-based; settings: Mus musculus, 72 h; NIH3T3 cells, TC-treated plate, 3 days, […]-GLO; read-out: IC50 2D cell culture step
Procedure: Note that, as a negative control, the NIH3T3 cells at 2×10^3 cells/100 were seeded to the same plate in a volume of 100 μL per well and cultured at 37° C. in the presence of 5% CO2 for 3 days without the addition of the test substance.
Note that, Dulbecco's Modified Eagle Medium supplemented with 5% FBS was used for the culture.
A cell proliferation inhibition rate in the 2D cell culture step was calculated according to (Expression 2) below. Cell proliferation inhibition rate(%)=(1−D/E)×100 (Expression 2)
In the (Expression 2), D denotes the number of viable NIH3T3 cells when the test substance was added, and E denotes the number of viable NIH3T3 cells when the test substance was not added.

NIH3T3/EGFRWT cells = test: 3D cell culture step, NIH3T3/EGFRWT cells in EGF-including medium; type: cell-based, mouse
Procedure: (§1) After the 3 days of culture, the number of viable cells was counted by […]-GLO (trademark) Luminescent Cell Viability Assay (available from Promega), which was a method for quantitating ATP in viable cells. A cell proliferation inhibition rate in the 3D cell culture step was calculated according to (Expression 3) below. Cell proliferation inhibition rate(%)=(1−X/Y)×100 (Expression 3)
(§2) In the (Expression 3), X denotes the number of viable cells when the test substance was added, and Y denotes the number of viable cells when the test substance was not added.

U251 cells = test: 3D cell culture step, EGFR vIII gene non-expressing brain tumor cells U251; type: cell-based; settings: Test Example 3, U251 cells
Procedure: (§3) The following 3 brain tumor cells were used as the EGFR vIII gene non-expressing cells. • U251 cells (available from ATCC) • U87MG cells (available from ATCC) • KS-1 cells (available from ATCC) <3D Cell Culture Step>
as §1, §2

U87MG cells = test: 3D cell culture step, EGFR vIII gene non-expressing brain tumor cells U87MG; type: cell-based; settings: Test Example 3, U87MG cells
Procedure: as §3, §1, §2

KS-1 cells = test: 3D cell culture step, EGFR vIII gene non-expressing brain tumor cells KS-1; type: cell-based; settings: Test Example 3, KS-1 cells
Procedure: as §3, §1, §2

[1] = Acute toxicity test, oral administration; type: in vivo, ICR mice; settings: orally once; for Organ weight Heart / Organ weight Kidney (Left) / Organ weight Kidney (Right) / Organ weight Liver / Organ weight Lung / Organ weight Spleen / Organ weight Thymus: two weeks after
Excerpt: Two-weeks after the compounds represented by the Structural Formula (1) at the above concentrations were orally administered, the mice were dissected and organs thereof were weighed.
Two-weeks after the compounds represented by the Structural Formula (8) at the above concentrations were orally administered, the mice were dissected and organs thereof were weighed.

[2] = Acute toxicity test, tail vein administration; type: in vivo, ICR mice; settings: tail vein once; for Organ weight Heart / Organ weight Kidney (Right) / Organ weight Liver / Organ weight Lung / Organ weight Spleen / Organ weight Thymus / Organ weight Kidney (Left): two weeks after
Procedure: Two-weeks after the compounds represented by the Structural Formula (1) at the above concentrations were administered to the tail veins, the mice were dissected and organs thereof were weighed.

[3] = Solubility (remark in acute toxicity test); type: physicochemical
[4] = system: NIH3T3/EGFRWT cell-transplanted tumor
Excerpt: Note that, “*” denotes t<0.05.

[5] = system: NIH3T3/EGFR vIII cell-transplanted tumor
mDia = settings: in vitro, reported in NPL 1; cited from earlier work
[6] = 30 mg/kg intraperitoneally once a day, day 1 to day 17

SMILES: Nc1ccc(Br)cc1-c1nc2ccccc2[nH]c1=O [Structural Formula (1), 3-(2-amino-5-bromophenyl)-2(1H)-quinoxalinone]
- cell proliferation inhibiting activity compared with AG1478, Gefitinib and Erlotinib (NIH3T3/EGFR vIII cells; 3D cell culture step): more significant cell proliferation inhibiting activity
- IC50 (NIH3T3/EGFR vIII cells; Mus musculus, 72 h, NIH3T3/EGFR vIII cells, Ultra Low Attachment plate, 3 days, […]-GLO): 12 nM
- inhibiting activity against scaffold-independent proliferation capacity (NIH3T3/EGFR vIII cells; Test Example 3, NIH3T3/EGFR vIII cells): exhibited an inhibiting activity
- IC50 (NIH3T3 cells): > 10 µM
- inhibition of proliferation of the NIH3T3/EGFRWT cells (NIH3T3/EGFRWT cells; 3D cell culture step, EGF 50 ng/mL in medium): inhibited proliferation
- inhibiting activity against scaffold-independent proliferation capacity (NIH3T3/EGFRWT cells; Test Example 3, NIH3T3/EGFRWT cells, EGF-including medium): exhibited an inhibiting activity
- inhibiting activity against scaffold-independent proliferation capacity (U251 cells): did not exhibit an inhibiting activity
- inhibiting activity against scaffold-independent proliferation capacity (U87MG cells): did not exhibit an inhibiting activity
- inhibiting activity against scaffold-independent proliferation capacity (KS-1 cells): did not exhibit an inhibiting activity
- Organ weight Heart ([1]; 0.098 mg/kg/0.2 mL): 124.0 mg
- Organ weight Kidney (Left) ([1]; 0.098 mg/kg/0.2 mL): 183.0 mg
- Organ weight Kidney (Right) ([1]; 0.098 mg/kg/0.2 mL): 191.0 mg
- Organ weight Liver ([1]; 0.098 mg/kg/0.2 mL): 1524.0 mg
- Organ weight Lung ([1]; 0.098 mg/kg/0.2 mL): 163.0 mg
- Organ weight Spleen ([1]; 0.098 mg/kg/0.2 mL): 132.0 mg
- Organ weight Heart ([1]; 6.25 mg/kg/0.2 mL): 122.0 mg
- Organ weight Lung ([1]; 6.25 mg/kg/0.2 mL): 169.0 mg
- Organ weight Thymus ([1]; 6.25 mg/kg/0.2 mL): 112.0 mg
- Organ weight Heart ([1]; 12.5 mg/kg/0.2 mL): 143.0 mg
- Organ weight Kidney (Left) ([1]; 12.5 mg/kg/0.2 mL): 177.0 mg
- Organ weight Kidney (Right) ([1]; 12.5 mg/kg/0.2 mL): 177.0 mg
- Organ weight Liver ([1]; 12.5 mg/kg/0.2 mL): 1327.0 mg
- Organ weight Lung ([1]; 12.5 mg/kg/0.2 mL): 191.0 mg
- Organ weight Spleen ([1]; 12.5 mg/kg/0.2 mL): 173.0 mg
- Organ weight Thymus ([1]; 12.5 mg/kg/0.2 mL): 99.0 mg
- Organ weight Heart ([1]; 25 mg/kg/0.2 mL): 116.0 mg
- Organ weight Kidney (Left) ([1]; 25 mg/kg/0.2 mL): 157.0 mg
- Organ weight Kidney (Right) ([1]; 25 mg/kg/0.2 mL): 169.0 mg
- Organ weight Liver ([1]; 25 mg/kg/0.2 mL): 1290.0 mg
- Organ weight Lung ([1]; 25 mg/kg/0.2 mL): 176.0 mg
- Organ weight Spleen ([1]; 25 mg/kg/0.2 mL): 100.0 mg
- Organ weight Thymus ([1]; 25 mg/kg/0.2 mL): 87.0 mg
- Organ weight Heart ([1]; 50 mg/kg/0.4 mL): 115.0 mg
- Organ weight Kidney (Left) ([1]; 50 mg/kg/0.4 mL): 150.0 mg
- Organ weight Kidney (Right) ([1]; 50 mg/kg/0.4 mL): 155.0 mg
- Organ weight Liver ([1]; 50 mg/kg/0.4 mL): 1403.0 mg
- Organ weight Lung ([1]; 50 mg/kg/0.4 mL): 166.0 mg
- Organ weight Spleen ([1]; 50 mg/kg/0.4 mL): 117.0 mg
- Organ weight Thymus ([1]; 50 mg/kg/0.4 mL): 95.0 mg
- toxicity ([1]; 0.098 to 50 mg/kg, observed 2 weeks): no significant toxicity
- Organ weight Heart ([2]; 0.39 mg/kg/0.2 mL): 121.0 mg
- Organ weight Kidney (Right) ([2]; 0.39 mg/kg/0.2 mL): 168.0 mg
- Organ weight Liver ([2]; 0.39 mg/kg/0.2 mL): 1325.0 mg
- Organ weight Lung ([2]; 0.39 mg/kg/0.2 mL): 173.0 mg
- Organ weight Spleen ([2]; 0.39 mg/kg/0.2 mL): 110.0 mg
- Organ weight Thymus ([2]; 0.39 mg/kg/0.2 mL): 83.0 mg
- Organ weight Heart ([2]; 0.78 mg/kg/0.2 mL): 116.0 mg
- Organ weight Kidney (Left) ([2]; 0.78 mg/kg/0.2 mL): 165.0 mg
- Organ weight Kidney (Right) ([2]; 0.78 mg/kg/0.2 mL): 174.0 mg
- Organ weight Liver ([2]; 0.78 mg/kg/0.2 mL): 1423.0 mg
- Organ weight Lung ([2]; 0.78 mg/kg/0.2 mL): 164.0 mg
- Organ weight Spleen ([2]; 0.78 mg/kg/0.2 mL): 115.0 mg
- Organ weight Thymus ([2]; 0.78 mg/kg/0.2 mL): 112.0 mg
- Organ weight Heart ([2]; 1.56 mg/kg/0.2 mL): 121.0 mg
- Organ weight Kidney (Left) ([2]; 1.56 mg/kg/0.2 mL): 170.0 mg
- Organ weight Kidney (Right) ([2]; 1.56 mg/kg/0.2 mL): 167.0 mg
- Organ weight Liver ([2]; 1.56 mg/kg/0.2 mL): 1471.0 mg
- Organ weight Lung ([2]; 1.56 mg/kg/0.2 mL): 170.0 mg
- Organ weight Spleen ([2]; 1.56 mg/kg/0.2 mL): 104.0 mg
- Organ weight Thymus ([2]; 1.56 mg/kg/0.2 mL): 56.0 mg
- toxicity ([2]; observed 2 weeks): no significant toxicity
- solubility [3]: poor solubility
- tumor proliferation inhibiting activity [4, 6]: exhibited the tumor proliferation inhibiting activity
- tumor proliferation inhibiting activity compared with Gefitinib ([4]; 30 mg/kg intraperitoneally vs Gefitinib 200 mg/kg orally): comparable
- tumor weight versus negative control group ([5]; 30 mg/kg intraperitoneally once a day, 17 days after transplantation, t<0.05): significantly different
- mouse body weight (weight loss) [5, 6]: weight loss was not observed
- toxicity [5, 6]: no toxicity
- tumor proliferation inhibiting activity [5, 6]: exhibited the tumor proliferation inhibiting activity
- tumor proliferation inhibiting activity compared with Gefitinib ([5]; 30 mg/kg intraperitoneally vs Gefitinib 100 mg/kg orally): comparable
- inhibition of mDia-mediated actin assembly (mDia): inhibit mDia-mediated actin assembly in vitro
